The test system of assay [1] is Caco-2 cells. The experiment in a line: Apoptosis (sub-G1 events) by PI staining and flow cytometry. Format: cell-based, human. The following applies: 72 h. Here is the method:
Given that apoptosis is a common programmed mechanism regulating cell death, characterized by DNA fragmentation and an increase in sub-G1 events, we employed the method described by Riccardi and Nicolleti to assess potential apoptosis induction using flow cytometry. Cyanine dyes 5 and 10 were tested at concentrations of 1 µM and 10 µM, respectively. As positive controls for apoptosis, 600 mM sorbitol and 10 µM 5-FU were used, with untreated cells serving as the negative control. […] In contrast, dye 10 induced a slight increase in apoptosis, reaching 1.7%. […] Apoptotic bodies were more evident in cells treated with dye 5 compared to dye 10, which is further supported by the slightly higher apoptosis induction in this assay.
Apoptosis (sub-G1 events) and cell cycle distribution were evaluated by propidium iodide (PI) staining and flow cytometry, as described by Riccardi and Nicolleti. […] Untreated cells were used as the negative control, and sorbitol and 5-FU were used as positive controls. After incubation, the supernatant was collected in a centrifuge tube, cells were washed with PBS, trypsinized and wells were once again washed with PBS. This cell suspension was maintained on ice, centrifugated at 300 g for 5 min, and then the pellet was resuspended in 0.5 mL of PBS. Cells were fixed by adding 4.5 mL of 70% ethanol cooled at −20 °C on ice and were stored at −20 °C for a period ranging from one to a few days. On the day of flow cytometry analysis, PBS was added to the fixed cell tubes, followed by centrifugation and removal of the supernatant. The pellet was resuspended in 0.5 mL of PBS and 0.5 mL of DNA extraction solution (192 mL of 0.2 M sodium phosphate and 8 mL of […], pH 7.8). After incubation for 5 min, the cells were once again centrifuged, the supernatant was removed, and the pellet was resuspended in 0.3 mL of staining solution (20 µg/mL of PI and 0.2 mg/mL of DNase-free RNase in PBS). Using a FACSCalibur flow cytometer (Becton Dickinson, Franklin Lakes, NJ, USA) with a 488 nm laser line, a minimum of 20,000 events were acquired and recorded using the BD CellQuestTM Pro 4.0.2 software, and analyzed with FlowJo 10.5.3 software. To exclude debris and necrotic cells, events with a lower diameter (forward scatter; FCS) and PI fluorescence (FL3) than the hypodiploid apoptotic cells were eliminated (Figures S1 and S2). Two independent experiments were performed. A Student’s t-test was performed to evaluate the statistical significance of the results.

The subject of assay [2] is MCF-7 breast adenocarcinoma cells. Nature of the assay: MTT cell viability assay, MCF-7. The following applies: for IC50 / viability at 10 µM: Homo sapiens, MCF7, 72 h; for viability at 10 µM: read-out: cell viability percentage in relation to control, MCF-7; for SI MCF-7 (selectivity index versus NHDF): MCF-7 versus NHDF, 72 h. Here is the method:
To evaluate the anticancer potential of monomethine cyanine dyes 1–12, a cell proliferation study was conducted using the 3-(4,5-dimethylthiazol-2-yl)-2,5-diphenyltetrazolium bromide (MTT) assay. For this preliminary evaluation, a concentration of 10 µM for each dye was tested, with the well-established chemotherapy agent 5-fluorouracil (5-FU) serving as a positive control. The assay included normal human dermal fibroblasts (NHDF) as non-tumor cells, alongside tumor cell lines from colorectal (Caco-2), prostate (PC-3), and breast (MCF-7) adenocarcinomas.
The cell lines used in this study (Caco-2, MCF-7, PC-3, and NHDF) were obtained from the American Type Culture Collection (ATCC, Manassas, VA, USA) and cultured in 75 cm^2 culture flasks at 37 °C in a humidified atmosphere with 5% CO2 in a LEEC Culture Safe Precision CO2 Incubator. PC-3 cells were grown in Roswell Park Memorial Institute (RPMI) medium supplemented with 10% of inactivated Fetal Bovine Serum (FBS) and 1% of an antibiotic mixture (Sp; 10,000 U/mL of penicillin G and […] of streptomycin). MCF-7 and Caco-2 cell lines were both cultured using Dulbecco’s Modified Eagle Medium (DMEM). However, the medium for MCF-7 cells was complemented with 10% of inactivated FBS and 1% of antibiotic/antimycotic mixture (Ab; 10,000 U/mL of penicillin G, […] of streptomycin and 25 µg/mL of amphotericin B), and the medium for Caco-2 cells was supplemented with 20% of inactivated FBS and 1% of Sp. Finally, RPMI medium supplemented with 10% FBS, 2 mM of L-glutamine, 10 mM of 4-(2-hydroxyethyl)-1-piperazineethanesulfonic acid (HEPES), 1 mM of sodium pyruvate, and 1% of Ab was used to culture NHDF cells. The culture media were renewed every two to three days until near confluence was achieved. Then, cells were detached using a solution of 0.125 g/L of trypsin and 0.02 g/L of ethylenediaminetetracetic acid (EDTA), counted by the trypan blue method, resuspended, and adequately seeded to continue the culture in 75 cm^2 flasks or for the experiments described below. All manipulations were performed in a Labculture Class II A2 Biological Safety Cabinet.
After trypsinization, cells were seeded in 96-well culture plates (100 µL; 2 × 10^4 cells/mL), and after 48 h (for adherence), they were incubated with the compounds under study in the absence of light for a duration of 72 h. Then, the medium was removed, and fresh incomplete culture medium (without FBS and Ab or Sp) and MTT solution [5 mg/mL in phosphate buffer saline (PBS)] were added to each well, followed by 4 h of incubation. After this, the medium containing MTT was removed and DMSO was added to dissolve formazan crystals. The absorbance of each well at 570 nm was determined using a microplate spectrophotometer Bio-Rad (Hercules, CA, USA) xMark. Untreated cells were considered the negative control, and 5-FU, a clinically used drug, was considered the positive control. For data analysis, the relative cell proliferation relative to the negative control cells was calculated. For each cell viability study, at least two independent assays in quadruplicate were performed. Increasing concentrations of the compounds between 0.001 and 100 μM were used to determine the IC50 values.

[3] abbreviates: read-out: IC50 MCF-7, MCF-7, 72 h incubation, MTT.

Like-named read-outs stand apart in the source and are kept apart here.

Data on three molecules can be found in PMC11642940, “A New Demand for Improved Selectivity and Potency of Cyanine Dyes as Antiproliferative Agents Against Colorectal Cancer Cells” (Molecules, 2024).

For `CCN1C(=Cc2sc3cc([N+](=O)[O-])ccc3[n+]2CC)Sc2ccccc21.Cc1ccc(S(=O)(=O)[O-])cc1` [Dye 10, 3-Ethyl-2-((3-ethylbenzo[d]thiazol-2(3H)-ylidene)methyl)-6-nitrobenzo[d]thiazol-3-ium 4-methylbenzenesulfonate], in assay [1] (Caco-2, 10 µM), the “apoptosis (sub-G1 events), % of cells” value is 1.7%. For the same molecule, the IC50 in assay [2] (setting [3]) came to 13.3 µM. For the same molecule, in assay [2], the viability at 10 µM is 10.6 ± 6.44% and the “SI MCF-7 (selectivity index versus NHDF)” value is given as 1.7.
In the case of `CN1C(=Cc2oc3ccccc3[n+]2C)C=Cc2ccccc21.Cc1ccc(S(=O)(=O)[O-])cc1` [Dye 5, 3-Methyl-2-((1-methylquinolin-2(1H)-ylidene)methyl)benzo[d]oxazol-3-ium 4-methylbenzenesulfonate], in assay [1] (Caco-2, 1 µM), the “apoptosis (sub-G1 events), % of cells” value is given as “approximately 2.3%”. Moreover, the half-maximal inhibitory concentration (IC50) in assay [2] (setting [3]) was 3.83 µM. Further, in assay [2], the viability at 10 µM is 6.34 ± 1.06% and the “SI MCF-7 (selectivity index versus NHDF)” value amounted to 0.7.
As for `O=c1[nH]cc(F)c(=O)[nH]1` [5-FU, 5-fluorouracil, reference compound], in assay [1] (Caco-2, 10 µM), the “apoptosis (sub-G1 events), % of cells” value came out at 12.8%. Also, the IC50 in assay [2] (read-out: IC50 MCF-7) is 2.12 µM. Also, in assay [2], the viability at 10 µM is 25.3 ± 4.94% and the “SI MCF-7 (selectivity index versus NHDF)” value was 2.1.
